Laboratory results from patent publication US11370769B2, “TRPC5 inhibitors and methods of using same” (BOARD OF REGENTS OF THE UNIVERSITY OF NEBRASKA, priority 2017, dated 2022).

Key:
AT1R Tg rats = test: AT1R Tg rat model of progressive FSGS; assay type: in vivo
Procedure: Animals and chemicals: Littermates of wild-type (WT) and AT1R TgNeph-hAT1R/185 transgenic (AT1R Tg) rats were housed under a controlled environment with a 12-hour light-dark cycle and access to food and water ad libitum, unless otherwise described. All animal experiments were performed in accordance to the guidelines established and approved by the Animal Care and Use Committee at Brigham and Women's Hospital, Harvard Medical School (Animal Protocol No. 01538). AT1R Tg rats were placed in the Onset cohort when measured proteinuria was >5 mg/day (at approximately 12 weeks of age) on two separate 24-hour urine collections. AT1R Tg rats were placed in the Advanced cohort when measured proteinuria was >25 mg/day (at approximately 18 weeks of age) on two separate 24-hour urine collections. These thresholds were determined after detailed histologic and phenotypic characterization of AT1R Tg rats compared to WT littermates (all combined, n=91 WT rats and n=122 AT1R Tg rats were studied). The Dahl salt-sensitive (S) inbred strain is maintained at University of Mississippi Medical Center (UMMC) and was originally obtained from University of Toledo-College of Medicine (SS/Jr). All animal experiments performed at UMMC were in accordance to the guidelines established and approved by the Institutional Animal Care and Use Committee. Animals used for this studied were provided either low-salt diet [TD7034, 0.3% NaCl and/or high-salt diet [TD94217, 2.0% NaCl] from Harlan Teklad, Madison, Wis. For onset study, at 4 weeks of age, groups of age-matched male S were weaned to the low-salt diet and divided into two groups: vehicle (n=8) and AC1903 groups (n=8). At 6 weeks of age, both groups were placed on the high-salt diet and concurrently treated with either vehicle or AC1903 for 1-week (Onset). For Advanced study, similarly at 4 weeks of age, groups of age-matched male S were weaned to the low-salt diet and divided into two groups: vehicle (n=9) and AC1903 groups (n=11). At 6 weeks of age, both groups were placed on the high-salt diet. At week 7, concurrent with high-salt diet, animals were treated with either vehicle or AC1903 for 1-week (Advanced). At the conclusion of each study, animals were initially anesthetized under 2-3% isoflurane/O2 gas, a catheter attached to a fluid filled pressure transducer was placed in the aorta, isoflurane gas was reduced to 1.5%, and mean arterial pressure was measured for ˜5 min period using PowerLab 4/30 system (ADI Instruments, Co) as done previously. All chemicals were purchased from Sigma-Aldrich unless otherwise described.
Chemical preparation and IP administration: ML204 and AC1903 were prepared from powder in a single batch for each in vivo experiment to avoid variability. Immediately prior to injections, ML204 or AC1903 solution was placed on a heated shaker at 48° C. and 800 RPM. Vehicle was prepared in the same fashion. Injection volume was determined by body weight (2 mL vehicle/compound per kg body weight). Body weight was measured at the time of injection.
Urine collection and assay: For urine collections, rats were housed individually in a metabolic cage supplied with food and water. Urine was collected into a 50 mL falcon tube for 24 hours. Total urine volume was measured and then centrifuged at 3,200 rcf for 10 min at 4° C. Albumin quantification was done according to previously published protocol (11), involving multiple dilutions of urine from each animal compared to Bovine Serum Albumin (BSA) standards. Coumassie Blue stained gels were quantified by densitometry using ImageJ software. As an additional control, the rat ELISA Albumin kit (Exocell) was used for albumin quantification according to the manufacturer's recommendations and yielded the same results. Urine protein was measured using QuanTtest® Red Total Protein Assay System (Quantimetrix, Redondo Beach, Calif.) and expressed as mg protein/24 hours. […]

podocytes = test: ROS assay in wild-type podocytes treated with AngII; assay type: cell-based, mouse; conditions: WT podocytes, AngII 10 μM, 30 μM compound, 3 hours
Procedure: Podocyte culture and viral transduction: Immortalized mouse podocytes were cultured as previously described (10, 11). Podocyte viral transduction was performed using lentivirus as previously described (10, 11). Briefly, lentivirus production was carried out in HEK293T cells at 60% confluence, and viral particles were collected two days after transfection and purified by centrifugation at 1,000 rcf for 5 min. Purified lentivirus was frozen at −80° C. until further use. Podocytes were transduced with lentivirus after 7 days of differentiation, and assays were performed 5 days after viral transduction.
ROS and cell viability assays: For ROS experiment in FIG. 4A, mature podocytes were cultured as previously described. Cells were incubated with CellRox Deep Red reagent (ThermoFisher) for 30 min at 37° C. Then cells were treated with DMSO, 10 μM angiotensin II, 10 μM angiotensin II with 30 μM AC1903, or 10 μM angiotensin II with 30 μM N-acetyl-L-cysteine (NAC) for 3 hours at 37° C. Cells were washed with PBS twice and fluorescence images were observed using Olympus IX71 microscopy. Fluorescence intensities were then analyzed using ImageJ software.

SMILES	numbers of podocytes per glomerulus (AT1R Tg rats; AC1903-treated AT1R Tg rats)	BUN (AT1R Tg rats; AC1903 treatment)	body weight (AT1R Tg rats; AC1903 treatment)	creatinine (AT1R Tg rats; AC1903 treatment)	podocyte numbers compared to vehicle treated controls (AT1R Tg rats; Advanced, AC1903 50 mg/kg)	pseudocyst formation (AT1R Tg rats; Advanced, AC1903 50 mg/kg)	proteinuria (AT1R Tg rats; Advanced, AC1903 50 mg/kg twice daily i.p. for 7 days)	AngII-induced ROS (podocytes)	proteinuria progression (AT1R Tg rats; Advanced cohort, 25 mg/kg twice daily i.p., at 7 days and 14 days)	podocyte pseudocyst formation (AT1R Tg rats; Advanced, ML204)	podocyte numbers (morphometric analysis) (AT1R Tg rats; Advanced, ML204 vs PBS-treated Tg rats)	BUN (AT1R Tg rats; ML204 treatment)	body weight (AT1R Tg rats; ML204 treatment)	creatinine (AT1R Tg rats; ML204 treatment)	proteinuria (AT1R Tg rats; Onset cohort, ML204 twice daily i.p. for 7 days)
c1ccc(Cn2c(NCc3ccco3)nc3ccccc32)cc1 [AC1903]	approximately 120 podocytes/glom	did not affect	did not affect	did not affect	preserved numbers of podocytes	significant reduction in pseudocyst formation	sufficient to suppress severe proteinuria	blocked							
Cc1cc(N2CCCCC2)nc2ccccc12 [ML204, reference compound]									suppressed progression of proteinuric disease	prevented pseudocyst formation	prevented podocyte loss	did not affect	did not affect	did not affect	complete suppression of proteinuria down to baseline levels
